Experimental data: the supplement of paper PMC13207355

Assays:
Conditions in all cases: exposure time: 72 h
[1] = system: E57 (patient-derived glioblastoma stem cells of mesenchymal subtype); experiment: surviving fraction (nuclei count normalised to DMSO); higher = more cells surviving (less toxic)
[2] = system: E31 (patient-derived glioblastoma stem cells of proneural subtype); experiment: as above
[3] = system: E21 (patient-derived glioblastoma stem cells of mesenchymal subtype); experiment: as above
[4] = system: FT3469 (normal neural stem cell line); experiment: as above
[5] = system: E34 (patient-derived glioblastoma stem cells of proneural subtype); experiment: as above
[6] = system: E28 (patient-derived glioblastoma stem cells of classical subtype); experiment: as above
[7] = system: E13 (patient-derived glioblastoma stem cells of classical subtype); experiment: as above
[8] = system: E57; experiment: phenotypic distance (Euclidean, principal components) from DMSO controls (arbitrary units); higher = stronger morphological change
[9] = system: E31; experiment: as above
[10] = system: E21; experiment: as above
[11] = system: FT3469; experiment: as above
[12] = system: E34; experiment: as above
[13] = system: E28; experiment: as above
[14] = system: E13; experiment: as above
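Throughout, for phenotypic distance (Euclidean, principal components) from DMSO controls: cell Painting imaging in 384-well plates, CellProfiler features reduced to at least 20 principal components, Euclidean distance versus same-plate DMSO vehicle wells (0.1% v/v), median over six images per well.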
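Throughout, for surviving fraction (nuclei count normalised to DMSO): nuclei counted by high-content imaging of Hoechst-stained cells in laminin-coated 384-well plates, relative to 0.1% DMSO vehicle wells, with staurosporine as cell-death control.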

C[C@]12CC[C@H](O)C[C@H]1CC[C@@H]1[C@@H]2C[C@@H](O)[C@]2(C)[C@@H](C3=CC(=O)OC3)CC[C@]12O [Digoxigenin]
Conditions | phenotypic distance | surviving fraction
[1], 4.1 nM | – | 0.942
[1], 12.3 nM | – | 0.969
[1], 37 nM | – | 1.05
[1], 111.1 nM | – | 0.975
[1], 333.3 nM | – | 0.663
[1], 1000 nM | – | 0.346
[1], 3000 nM | – | 0.238
[2], 4.1 nM | – | 1.01
[2], 12.3 nM | – | 0.832
[2], 37 nM | – | 0.916
[2], 111.1 nM | – | 0.996
[2], 333.3 nM | – | 0.946
[2], 1000 nM | – | 0.603
[2], 3000 nM | – | 0.348
[3], 4.1 nM | – | 0.996
[3], 12.3 nM | – | 0.951
[3], 37 nM | – | 0.891
[3], 111.1 nM | – | 0.887
[3], 333.3 nM | – | 0.582
[3], 1000 nM | – | 0.473
[3], 3000 nM | – | 0.331
[4], 4.1 nM | – | 0.774
[4], 12.3 nM | – | 0.984
[4], 37 nM | – | 1.03
[4], 111.1 nM | – | 0.968
[4], 333.3 nM | – | 0.801
[4], 1000 nM | – | 0.652
[4], 3000 nM | – | 0.62
[5], 4.1 nM | – | 0.86
[5], 12.3 nM | – | 0.942
[5], 37 nM | – | 0.861
[5], 111.1 nM | – | 1.04
[5], 333.3 nM | – | 0.767
[5], 1000 nM | – | 0.63
[5], 3000 nM | – | 0.568
[6], 4.1 nM | – | 1.01
[6], 12.3 nM | – | 1.11
[6], 37 nM | – | 0.883
[6], 111.1 nM | – | 0.991
[6], 333.3 nM | – | 1.02
[6], 1000 nM | – | 0.998
[6], 3000 nM | – | 0.537
[7], 4.1 nM | – | 0.965
[7], 12.3 nM | – | 1.05
[7], 37 nM | – | 0.962
[7], 111.1 nM | – | 0.89
[7], 333.3 nM | – | 0.662
[7], 1000 nM | – | 0.426
[7], 3000 nM | – | 0.354
[8], 4.1 nM | 0.552 | –
[8], 12.3 nM | 1.14 | –
[8], 37 nM | 0.391 | –
[8], 111.1 nM | 0.908 | –
[8], 333.3 nM | 3.27 | –
[8], 1000 nM | 4.63 | –
[8], 3000 nM | 6.24 | –
[9], 4.1 nM | 0.558 | –
[9], 12.3 nM | 0.764 | –
[9], 37 nM | 0.809 | –
[9], 111.1 nM | 0.828 | –
[9], 333.3 nM | 1.83 | –
[9], 1000 nM | 3.63 | –
[9], 3000 nM | 4.82 | –
[10], 4.1 nM | 0.486 | –
[10], 12.3 nM | 0.815 | –
[10], 37 nM | 0.94 | –
[10], 111.1 nM | 1.64 | –
[10], 333.3 nM | 3.18 | –
[10], 1000 nM | 3.95 | –
[10], 3000 nM | 6.35 | –
[11], 4.1 nM | 1 | –
[11], 12.3 nM | 1.82 | –
[11], 37 nM | 0.883 | –
[11], 111.1 nM | 1.27 | –
[11], 333.3 nM | 2.84 | –
[11], 1000 nM | 4.38 | –
[11], 3000 nM | 3.34 | –
[12], 4.1 nM | 0.591 | –
[12], 12.3 nM | 0.506 | –
[12], 37 nM | 0.531 | –
[12], 111.1 nM | 0.98 | –
[12], 333.3 nM | 1.57 | –
[12], 1000 nM | 3.22 | –
[12], 3000 nM | 4.52 | –
[13], 4.1 nM | 0.383 | –
[13], 12.3 nM | 0.587 | –
[13], 37 nM | 0.46 | –
[13], 111.1 nM | 0.569 | –
[13], 333.3 nM | 0.59 | –
[13], 1000 nM | 1.04 | –
[13], 3000 nM | 2.24 | –
[14], 4.1 nM | 0.193 | –
[14], 12.3 nM | 0.571 | –
[14], 37 nM | 0.503 | –
[14], 111.1 nM | 0.911 | –
[14], 333.3 nM | 2.63 | –
[14], 1000 nM | 3.73 | –
[14], 3000 nM | 4.86 | –

Cc1ccc2c(c1)C1(CCN(CCc3nc(-c4ccccc4)oc3C)CC1)OC(=O)N2
Conditions | phenotypic distance | surviving fraction
[1], 4.1 nM | – | 1.05
[1], 12.3 nM | – | 1.03
[1], 37 nM | – | 0.923
[1], 111.1 nM | – | 1.01
[1], 333.3 nM | – | 1.04
[1], 1000 nM | – | 0.967
[1], 3000 nM | – | 1.02
[2], 4.1 nM | – | 1.04
[2], 12.3 nM | – | 0.99
[2], 37 nM | – | 1.01
[2], 111.1 nM | – | 0.979
[2], 333.3 nM | – | 1.04
[2], 1000 nM | – | 0.996
[2], 3000 nM | – | 0.955
[3], 4.1 nM | – | 0.932
[3], 12.3 nM | – | 0.961
[3], 37 nM | – | 0.956
[3], 111.1 nM | – | 1.07
[3], 333.3 nM | – | 0.988
[3], 1000 nM | – | 0.923
[3], 3000 nM | – | 0.891
[4], 4.1 nM | – | 0.873
[4], 12.3 nM | – | 1.15
[4], 37 nM | – | 1.04
[4], 111.1 nM | – | 0.795
[4], 333.3 nM | – | 1.1
[4], 1000 nM | – | 1.03
[4], 3000 nM | – | 0.991
[5], 4.1 nM | – | 0.851
[5], 12.3 nM | – | 1.03
[5], 37 nM | – | 0.875
[5], 111.1 nM | – | 0.878
[5], 333.3 nM | – | 1.17
[5], 1000 nM | – | 1.07
[5], 3000 nM | – | 1.05
[6], 4.1 nM | – | 1.07
[6], 12.3 nM | – | 0.977
[6], 37 nM | – | 1.11
[6], 111.1 nM | – | 0.99
[6], 333.3 nM | – | 1.11
[6], 1000 nM | – | 0.938
[6], 3000 nM | – | 1.1
[7], 4.1 nM | – | 0.988
[7], 12.3 nM | – | 1.09
[7], 37 nM | – | 1.12
[7], 111.1 nM | – | 1.07
[7], 333.3 nM | – | 1.12
[7], 1000 nM | – | 1.11
[7], 3000 nM | – | 0.943
[8], 4.1 nM | 0.955 | –
[8], 12.3 nM | 0.495 | –
[8], 37 nM | 0.64 | –
[8], 111.1 nM | 0.513 | –
[8], 333.3 nM | 0.49 | –
[8], 1000 nM | 0.453 | –
[8], 3000 nM | 0.766 | –
[9], 4.1 nM | 1.24 | –
[9], 12.3 nM | 0.61 | –
[9], 37 nM | 0.972 | –
[9], 111.1 nM | 0.485 | –
[9], 333.3 nM | 0.605 | –
[9], 1000 nM | 0.491 | –
[9], 3000 nM | 0.687 | –
[10], 4.1 nM | 1.42 | –
[10], 12.3 nM | 0.605 | –
[10], 37 nM | 4.58 | –
[10], 111.1 nM | 0.716 | –
[10], 333.3 nM | 0.433 | –
[10], 1000 nM | 0.642 | –
[10], 3000 nM | 1.29 | –
[11], 4.1 nM | 1.5 | –
[11], 12.3 nM | 0.887 | –
[11], 37 nM | 0.645 | –
[11], 111.1 nM | 1.16 | –
[11], 333.3 nM | 0.543 | –
[11], 1000 nM | 0.575 | –
[11], 3000 nM | 0.661 | –
[12], 4.1 nM | 0.895 | –
[12], 12.3 nM | 2 | –
[12], 37 nM | 0.587 | –
[12], 111.1 nM | 0.749 | –
[12], 333.3 nM | 0.998 | –
[12], 1000 nM | 0.765 | –
[12], 3000 nM | 0.942 | –
[13], 4.1 nM | 0.761 | –
[13], 12.3 nM | 1.33 | –
[13], 37 nM | 0.46 | –
[13], 111.1 nM | 0.636 | –
[13], 333.3 nM | 0.695 | –
[13], 1000 nM | 0.667 | –
[13], 3000 nM | 0.74 | –
[14], 4.1 nM | 2.72 | –
[14], 12.3 nM | 2.97 | –
[14], 37 nM | 1.42 | –
[14], 111.1 nM | 0.52 | –
[14], 333.3 nM | 0.547 | –
[14], 1000 nM | 0.819 | –
[14], 3000 nM | 0.711 | –
